How the values were obtained:
Cat L = Cat L (UniProt P07711); test: Cathepsin enzyme inhibition assay (fluorogenic peptide substrate Z-Val-Val-Arg-AMC), Cathepsin L; format: biochemical, human and mouse; settings: enzyme 1 nM, substrate 20 μM, pH 6.5; read-out: CatL IC50
In short: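 Fluorogenic cleavage of Z-Val-Val-Arg-AMC (20 μM) by 1 nM Cat L was monitored at ex 360/em 465 nm for 20 min, the linear phase. The buffer was 100 mM potassium phosphate pH 6.5 with 5 mM EDTA and DTT. IC50 values were derived by standard methods, in μM.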

Cathepsin S = Cathepsin S (UniProt P25774); test: Cathepsin enzyme inhibition assay (fluorogenic peptide substrate Z-Val-Val-Arg-AMC), Cathepsin S; format: biochemical, human and mouse; settings: enzyme 1 nM, substrate 20 μM, pH 6.5; read-out: CatS IC50
In short: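 Compounds were combined with 1 nM human or mouse enzyme, and substrate then started the reaction. The buffer was potassium phosphate (100 mM, pH 6.5) containing EDTA-Na 5 mM, Triton X-100 0.001% and […] 5 mM.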

| SMILES | IC50 (Cat L) | IC50 (Cathepsin S) |
| --- | --- | --- |
| Cc1cc(N2C[C@H](S(=O)(=O)c3ccccc3C(F)(F)F)C[C@@H]2C(=O)NC2(C#N)CC2)n(Cc2ccccc2)n1 [Example 321, (2R,4R)-1-(2-Benzyl-5-methyl-2H-pyrazol-3-yl)-4-(2-trifluoromethyl-benzenesulfonyl)-pyrrolidine-2-carboxylic acid (1-cyano-cyclopropyl)-amide] | ≥ 25 µM | 68.3 nM |
| Cc1cc(N2C[C@H](S(=O)(=O)c3ccccc3C(F)(F)F)C[C@H]2C(=O)NC2(C#N)CC2)n(C2CCC2)n1 [Example 322, (2S,4R)-1-(2-Cyclobutyl-5-methyl-2H-pyrazol-3-yl)-4-(2-trifluoromethyl-benzenesulfonyl)-pyrrolidine-2-carboxylic acid (1-cyano-cyclopropyl)-amide] | 28.5 µM | 0.3 nM |
| N#CC1(NC(=O)[C@@H]2C[C@@H](S(=O)(=O)c3ccccc3Cl)CN2S(=O)(=O)c2ccc(-c3cnco3)cc2)CC1 [Example 323, (2S,4R)-4-(2-Chloro-benzenesulfonyl)-1-(4-oxazol-5-yl-benzenesulfonyl)-pyrrolidine-2-carboxylic acid (1-cyano-cyclopropyl)-amide] | 4.82 µM | 0.44 nM |
| N#CC1(NC(=O)[C@@H]2C[C@@H](S(=O)(=O)c3ccc(N4CCC4)cc3Cl)CN2C(=O)C2(c3ccc(Cl)cc3)CC2)CC1 [Example 328, (2S,4R)-4-(4-Azetidin-1-yl-2-chloro-benzenesulfonyl)-1-[1-(4-chloro-phenyl)-cyclopropanecarbonyl]-pyrrolidine-2-carboxylic acid (1-cyano-cyclopropyl)-amide] | 0.13 µM | 0.16 nM |
| N#CC1(NC(=O)[C@@H]2C[C@@H](S(=O)(=O)c3ccc(OCC(F)(F)F)cc3Cl)CN2C(=O)C2(c3cccc(Cl)c3)CC2)CC1 [Example 331, (2S,4R)-1-[1-(3-Chloro-phenyl)-cyclopropanecarbonyl]-4-[2-chloro-4-(2,2,2-trifluoro-ethoxy)-benzenesulfonyl]-pyrrolidine-2-carboxylic acid (1-cyano-cyclopropyl)-amide] | 1.05 µM | 0.18 nM |
| N#CC1(NC(=O)[C@@H]2C[C@@H](S(=O)(=O)c3ccc(OCC(F)(F)F)cc3Cl)CN2C(=O)C2(c3cccc(Br)c3)CC2)CC1 [Example 332, (2S,4R)-1-[1-(3-Bromo-phenyl)-cyclopropanecarbonyl]-4-[2-chloro-4-(2,2,2-trifluoro-ethoxy)-benzenesulfonyl]-pyrrolidine-2-carboxylic acid (1-cyano-cyclopropyl)-amide] | 0.58 µM | 0.195 nM |
| COc1cccc(-n2nc(C)cc2N2C[C@H](S(=O)(=O)c3ccccc3C(F)(F)F)C[C@H]2C(=O)NC2(C#N)CC2)c1 [Example 333, (2S,4R)-1-[2-(3-Methoxy-phenyl)-5-methyl-2H-pyrazol-3-yl]-4-(2-trifluoromethyl-benzenesulfonyl)-pyrrolidine-2-carboxylic acid (1-cyano-cyclopropyl)-amide] | 7.99 µM | 1.9 nM |
| COc1cccc(-n2nc(C)cc2N2C[C@H](S(=O)(=O)c3ccccc3C(F)(F)F)C[C@@H]2C(=O)NC2(C#N)CC2)c1 [Example 334, (2R,4R)-1-[2-(3-Methoxy-phenyl)-5-methyl-2H-pyrazol-3-yl]-4-(2-trifluoromethyl-benzenesulfonyl)-pyrrolidine-2-carboxylic acid (1-cyano-cyclopropyl)-amide] | ≥ 25 µM | 780 nM |
| N#CC1(NC(=O)[C@@H]2C[C@@H](S(=O)(=O)c3ccccc3C(F)(F)F)CN2c2nnc(C(F)(F)F)s2)CC1 [Example 335, (2S,4R)-4-(2-Trifluoromethyl-benzenesulfonyl)-1-(5-trifluoromethyl-[1,3,4]thiadiazol-2-yl)-pyrrolidine-2-carboxylic acid (1-cyano-cyclopropyl)-amide] | ≥ 25 µM | 0.484 nM |
| Cc1cc(N2C[C@H](S(=O)(=O)c3ccccc3C(F)(F)F)C[C@H]2C(=O)NC2(C#N)CC2)n(CCc2ccccc2)n1 [Example 337, (2S,4R)-1-(5-Methyl-2-phenethyl-2H-pyrazol-3-yl)-4-(2-trifluoromethyl-benzenesulfonyl)-pyrrolidine-2-carboxylic acid (1-cyano-cyclopropyl)-amide] | 13 µM | 1.65 nM |
| Cc1cc(N2C[C@H](S(=O)(=O)c3ccccc3C(F)(F)F)C[C@@H]2C(=O)NC2(C#N)CC2)n(CCc2ccccc2)n1 [Example 338, (2R,4R)-1-(5-Methyl-2-phenethyl-2H-pyrazol-3-yl)-4-(2-trifluoromethyl-benzenesulfonyl)-pyrrolidine-2-carboxylic acid (1-cyano-cyclopropyl)-amide] | ≥ 25 µM | 375 nM |
| Cc1cc(N2C[C@H](S(=O)(=O)c3ccccc3C(F)(F)F)C[C@H]2C(=O)NC2(C#N)CC2)n(C(C)(C)C)n1 [Example 339, (2S,4R)-1-(2-tert-Butyl-5-methyl-2H-pyrazol-3-yl)-4-(2-trifluoromethyl-benzenesulfonyl)-pyrrolidine-2-carboxylic acid (1-cyano-cyclopropyl)-amide] | ≥ 25 µM | 62.5 nM |
| Cc1cc(N2C[C@H](S(=O)(=O)c3ccccc3C(F)(F)F)C[C@H]2C(=O)NC2(C#N)CC2)n(CC(C)C)n1 [Example 340, (2S,4R)-1-(2-Isobutyl-5-methyl-2H-pyrazol-3-yl)-4-(2-trifluoromethyl-benzenesulfonyl)-pyrrolidine-2-carboxylic acid (1-cyano-cyclopropyl)-amide] | 26.4 µM | 0.975 nM |
| Cc1cc(N2C[C@H](S(=O)(=O)c3ccccc3C(F)(F)F)C[C@@H]2C(=O)NC2(C#N)CC2)n(CC(C)C)n1 [Example 341, (2R,4R)-1-(2-Isobutyl-5-methyl-2H-pyrazol-3-yl)-4-(2-trifluoromethyl-benzenesulfonyl)-pyrrolidine-2-carboxylic acid (1-cyano-cyclopropyl)-amide] | ≥ 25 µM | 150 nM |
| COCCOc1ccc(S(=O)(=O)[C@@H]2C[C@@H](C(=O)NC3(C#N)CC3)N(C(=O)C3(c4ccc(Cl)cc4)CC3)C2)c(Cl)c1 [Example 342, (2S,4R)-4-[2-Chloro-4-(2-methoxy-ethoxy)-benzenesulfonyl]-1-[1-(4-chloro-phenyl)-cyclopropanecarbonyl]-pyrrolidine-2-carboxylic acid (1-cyano-cyclopropyl)-amide] | 0.0495 µM | 0.08 nM |
| N#CC1(NC(=O)C2CC(S(=O)(=O)c3ccccc3C(F)(F)F)CN2c2ccccc2-c2ccccc2)CC1 (stereo not shown) [Example 343, 1-Biphenyl-2-yl-4-(2-trifluoromethyl-benzenesulfonyl)-pyrrolidine-2-carboxylic acid (1-cyano-cyclopropyl)-amide] | ≥ 25 µM | 99.3 nM |

Next, values leading:

| IC50 (Cat L) | IC50 (Cathepsin S) | SMILES |
| --- | --- | --- |
| ≥ 25 µM | 0.54 nM | CC1(C(=O)N2C[C@H](S(=O)(=O)c3ccc(F)cc3C(F)(F)F)C[C@H]2C(=O)NC2(C#N)CC2)CC1 [Example 344, (2S,4R)-4-(4-Fluoro-2-trifluoromethyl-benzenesulfonyl)-1-(1-methyl-cyclopropanecarbonyl)-pyrrolidine-2-carboxylic acid (1-cyano-cyclopropyl)-amide] |
| 70.3 µM | 0.915 nM | N#CC1(NC(=O)C2CC(S(=O)(=O)c3ccccc3C(F)(F)F)CN2c2cccc3ccccc23)CC1 (stereo not shown) [Example 345, 1-Naphthalen-1-yl-4-(2-trifluoromethyl-benzenesulfonyl)-pyrrolidine-2-carboxylic acid (1-cyano-cyclopropyl)-amide] |
| 0.0285 µM | 0.101 nM | N#CC1(NC(=O)[C@@H]2C[C@@H](S(=O)(=O)c3ccc(OCC(F)(F)F)cc3Cl)CN2C(=O)C2(c3ccc(Br)cc3)OCCO2)CC1 [Example 346, (2S,4R)-1-[2-(4-Bromo-phenyl)-[1,3]dioxolane-2-carbonyl]-4-[2-chloro-4-(2,2,2-trifluoro-ethoxy)-benzenesulfonyl]-pyrrolidine-2-carboxylic acid (1-cyano-cyclopropyl)-amide] |
| 0.06 µM | 0.855 nM | N#CC1(NC(=O)[C@@H]2C[C@@H](S(=O)(=O)c3ccc(OCC(F)(F)F)cc3Cl)CN2C(=O)C2(c3cccc4ccccc34)CC2)CC1 [Example 347, (2S,4R)-4-[2-Chloro-4-(2,2,2-trifluoro-ethoxy)-benzenesulfonyl]-1-(1-naphthalen-1-yl-cyclopropanecarbonyl)-pyrrolidine-2-carboxylic acid (1-cyano-cyclopropyl)-amide] |
| 0.051 µM | 0.17 nM | N#CC1(NC(=O)[C@@H]2C[C@@H](S(=O)(=O)c3ccc(OCC(F)(F)F)cc3Cl)CN2C(=O)C2(c3ccc4ccccc4c3)CC2)CC1 [Example 348, (2S,4R)-4-[2-Chloro-4-(2,2,2-trifluoro-ethoxy)-benzenesulfonyl]-1-(1-naphthalen-2-yl-cyclopropanecarbonyl)-pyrrolidine-2-carboxylic acid (1-cyano-cyclopropyl)-amide] |
| 0.22 µM | 0.03 nM | N#CC1(NC(=O)[C@@H]2C[C@@H](S(=O)(=O)c3ccc(-n4cnc5cnccc54)cc3Cl)CN2C(=O)C2(c3ccc(Cl)cc3)CC2)CC1 [Example 349, (2S,4R)-4-(2-Chloro-4-imidazo[4,5-c]pyridin-1-yl-benzenesulfonyl)-1-[1-(4-chloro-phenyl)-cyclopropanecarbonyl]-pyrrolidine-2-carboxylic acid (1-cyano-cyclopropyl)-amide] |
| 0.26 µM | 0.06 nM | N#CC1(NC(=O)[C@@H]2C[C@@H](S(=O)(=O)c3ccc(-n4ccc5ncnc-5c4)cc3Cl)CN2C(=O)C2(c3ccc(Cl)cc3)CC2)CC1 [Example 350, (2S,4R)-4-(2-Chloro-4-imidazo[4,5-c]pyridin-5-yl-benzenesulfonyl)-1-[1-(4-chloro-phenyl)-cyclopropanecarbonyl]-pyrrolidine-2-carboxylic acid (1-cyano-cyclopropyl)-amide] |

From patent publication US8163793B2, “Proline derivatives” (Hoffman-La Roche Inc., priority 2009, dated 2012)
